Measured values reported in patent US20220110325A1, “PESTICIDALLY ACTIVE AZOLE-AMIDE COMPOUNDS” (SYNGENTA CROP PROTECTION AG, priority 2019, published 2022).

Tests used:
Assay type in all cases: in vivo
[1] = system: Euschistus heros (Neotropical Brown Stink Bug); assay: Euschistus heros (neotropical brown stink bug), sprayed soybean leaves; settings: 120 h, application rate of 200 ppm, N2 nymphs, 5 days after infestation, read-out: control in at least one of the two categories (mortality or growth inhibition)
Procedure: Example B3: Euschistus heros(Neotropical Brown Stink Bug)
Soybean leaves on agar in 24-well microtiter plates were sprayed with aqueous test solutions prepared from 10,000 ppm DMSO stock solutions. After drying the leaves were infested with N2 nymphs. The samples were assessed for mortality and growth inhibition in comparison to untreated samples 5 days after infestation.

[2] = system: Plutella xylostella (Diamond Back Moth); assay: Plutella xylostella (diamond back moth), artificial diet, eggs, 24-well; settings: 192 h, application rate of 200 ppm, eggs on artificial diet, 8 days after infestation, read-out: control in at least one of the two categories (mortality or growth inhibition)
Procedure: Example B5: Plutella xylostella (Diamond Back Moth)
24-well microtiter plates with artificial diet were treated with aqueous test solutions prepared from 10,000 ppm DMSO stock solutions by pipetting. After drying, Plutella eggs were pipetted through a plastic stencil onto a gel blotting paper and the plate was closed with it. The samples were assessed for mortality and growth inhibition in comparison to untreated samples 8 days after infestation.

[3] = system: Spodoptera littoralis (Egyptian Cotton Leaf Worm); assay: Spodoptera littoralis (Egyptian cotton leaf worm), sprayed cotton leaf discs; settings: foliar, 72 h, application rate of 200 ppm, L1 larvae, 3 days after infestation, read-out: control in at least one of the three categories (mortality, anti-feeding, or growth inhibition)
Procedure: Example B10: Spodoptera littoralis (Egyptian Cotton Leaf Worm)
Cotton leaf discs were placed onto agar in 24-well microtiter plates and sprayed with aqueous test solutions prepared from 10,000 ppm DMSO stock solutions. After drying the leaf discs were infested with five L1 larvae. The samples were assessed for mortality, anti-feeding effect, and growth inhibition in comparison to untreated samples 3 days after infestation. Control of Spodoptera littoralis by a test sample is given when at least one of the categories mortality, anti-feedant effect, and growth inhibition is higher than the untreated sample.

[4] = system: Myzus persicae (Green Peach Aphid); assay: Myzus persicae (green peach aphid), intrinsic activity; settings: 120 h, test rate of 12 ppm, sucrose solution through Parafilm, 5 days after infestation
Source text: Example B8: Myzus persicae (Green Peach Aphid). Intrinsic Activity
Test compounds prepared from 10,000 ppm DMSO stock solutions were applied by pipette into 24-well microtiter plates and mixed with sucrose solution. The plates were closed with a stretched Parafilm. A plastic stencil with 24 holes was placed onto the plate and infested pea seedlings were placed directly on the Parafilm. The infested plate was closed with a gel blotting paper and another plastic stencil and then turned upside down. The samples were assessed for mortality 5 days after infestation.

[5] = system: Diabrotica balteata (corn root worm); assay: Diabrotica balteata (corn root worm), sprayed maize sprouts; settings: 96 h, application rate of 200 ppm, L2 larvae, 4 days after infestation, read-out: control in at least one of the two categories (mortality or growth inhibition)
Procedure: Example B2: Diabrotica Balteata (Corn Root Worm)
Maize sprouts placed onto an agar layer in 24-well microtiter plates were treated with aqueous test solutions prepared from 10,000 ppm DMSO stock solutions by spraying. After drying, the plates were infested with L2 larvae (6 to 10 per well). The samples were assessed for mortality and growth inhibition in comparison to untreated samples 4 days after infestation.

[6] = system: Chilo suppressalis (Striped Rice Stemborer); assay: Chilo suppressalis (striped rice stemborer), artificial diet; settings: 144 h, application rate of 200 ppm, L2 larvae, 6 days after infestation, read-out: control in at least one of the three categories (mortality, anti-feeding or growth inhibition)
Procedure: Example 14: Chilo suppressalis (Striped Rice Stemborer)
24-well microtiter plates with artificial diet were treated with aqueous test solutions prepared from 10,000 ppm DMSO stock solutions by pipetting. After drying, the plates were infested with L2 larvae (6-8 per well). The samples were assessed for mortality, anti-feeding effect, and growth inhibition in comparison to untreated samples 6 days after infestation. Control of Chilo suppressalis by a test sample is given when at least one of the categories mortality, anti-feedant effect, and growth inhibition is higher than the untreated sample.

[7] = system: Tetranychus urticae (Two-Spotted Spider Mite); assay: Tetranychus urticae (two-spotted spider mite), feeding/contact activity; settings: 192 h
Procedure: Example B11: Tetranychus urticae (Two-Spotted Spider Mite):Feeding/Contact Activity
Bean leaf discs on agar in 24-well microtiter plates were sprayed with aqueous test solutions prepared from 10,000 ppm DMSO stock solutions. After drying the leaf discs were infested with a mite population of mixed ages. The samples were assessed for mortality on mixed population (mobile stages) 8 days after infestation.

[8] = system: Plutella xylostella (Diamondback Moth); assay: Plutella xylostella (diamondback moth), 96-well artificial diet, eggs; settings: 216 h, application rate of 500 ppm, eggs/L1 larvae, 9 days after infestation
Procedure: Example B13: Plutella xylostella (Diamondback Moth)
96-well microtiter plates containing artificial diet were treated with aqueous test solutions, prepared from 10,000 ppm DMSO stock solutions, by a liquid handling robot. After drying, eggs (˜30 per well) were infested onto a netted lid which was suspended above the diet. The eggs hatch and L1 larvae move down to the diet. The samples were assessed for mortality 9 days after infestation.

CC(NC(=O)c1cc(C(F)(F)F)cc(C(F)(F)F)c1)c1ncnn1-c1ncc(OC(F)F)cn1 (stereo not drawn) [Compound P3, N-[1-[2-[5-(difluoromethoxy)pyrimidin-2-yl]-1,2,4-triazol-3-yl]ethyl]-3,5-bis(trifluoromethyl) benzamide]
≥ 80%: percent control (mortality or growth inhibition) at 200 ppm [1] | percent control (mortality or growth inhibition) at 200 ppm [2] | percent control (mortality, anti-feeding or growth inhibition) at 200 ppm [3] | mortality at 12 ppm [4] | percent control (mortality or growth inhibition) at 200 ppm [5] | percent control (mortality, anti-feedant effect or growth inhibition) at 200 ppm [6]

CC(NC(=O)c1cc(C(F)(F)F)cc(C(F)(F)F)c1)c1ncnn1-c1ncc(OCC(F)F)cn1 (stereo not drawn) [Compound P5, N-[1-[2-[5-(2,2-difluoroethoxy)pyrimidin-2-yl]-1,2,4-triazol-3-yl]ethyl]-3,5-bis(trifluoromethyl) benzamide]
≥ 80%: percent control (mortality or growth inhibition) at 200 ppm [1] | percent control (mortality or growth inhibition) at 200 ppm [2] | percent control (mortality, anti-feeding or growth inhibition) at 200 ppm [3] | percent control (mortality or growth inhibition) at 200 ppm [5] | percent control (mortality, anti-feedant effect or growth inhibition) at 200 ppm [6]

CC(NC(=O)c1cc(C(F)(F)F)cc(C(F)(F)F)c1)c1ncnn1-c1ncc(OCC(F)(F)F)cn1 (stereo not drawn) [Compound P4, N-[1-[2-[5-(2,2,2-trifluoroethoxy)pyrimidin-2-yl]-1,2,4-triazol-3-yl]ethyl]-3,5-bis(trifluoromethyl) benzamide]
≥ 80%: percent control (mortality or growth inhibition) at 200 ppm [2] | percent control (mortality, anti-feeding or growth inhibition) at 200 ppm [3] | percent control (mortality or growth inhibition) at 200 ppm [5] | percent control (mortality, anti-feedant effect or growth inhibition) at 200 ppm [6]

CC(NC(=O)c1cc(C(F)(F)F)cc(C(F)(F)F)c1)c1ncnn1-c1ccc(OC(F)(F)F)cn1 (stereo not drawn) [Compound P6, N-[1-[2-[5-(trifluoromethoxy)-2-pyridyl]-1,2,4-triazol-3-yl]ethyl]-3,5-bis(trifluoromethyl) benzamide]
≥ 80%: percent control (mortality or growth inhibition) at 200 ppm [1] | mortality at 200 ppm [7] | percent control (mortality or growth inhibition) at 200 ppm [2] | mortality at 500 ppm [8] | percent control (mortality, anti-feeding or growth inhibition) at 200 ppm [3] | percent control (mortality or growth inhibition) at 200 ppm [5] | percent control (mortality, anti-feedant effect or growth inhibition) at 200 ppm [6]

CC(NC(=O)c1cc(C(F)(F)F)cc(C(F)(F)F)c1)c1ncnn1-c1ccc(OCC(F)(F)F)cn1 (stereo not drawn) [Compound P8, N-[1-[2-[5-(2,2,2-trifluoroethoxy)-2-pyridyl]-1,2,4-triazol-3-yl]ethyl]-3,5-bis(trifluoromethyl)benzamide]
≥ 80%: percent control (mortality or growth inhibition) at 200 ppm [2] | percent control (mortality, anti-feeding or growth inhibition) at 200 ppm [3] | percent control (mortality or growth inhibition) at 200 ppm [5] | percent control (mortality, anti-feedant effect or growth inhibition) at 200 ppm [6]

CC(NC(=O)c1cc(C(F)(F)F)cc(C(F)(F)F)c1)c1ncnn1-c1ccc(OC(F)F)cn1 (stereo not drawn) [Compound P11, N-[1-[2-[5-(difluoromethoxy)-2-pyridyl]-1,2,4-triazol-3-yl]ethyl]-3,5-bis(trifluoromethyl) benzamide]
≥ 80%: percent control (mortality or growth inhibition) at 200 ppm [2] | mortality at 500 ppm [8] | percent control (mortality, anti-feeding or growth inhibition) at 200 ppm [3] | percent control (mortality or growth inhibition) at 200 ppm [5] | percent control (mortality, anti-feedant effect or growth inhibition) at 200 ppm [6]

CC(NC(=O)c1cc(C(F)(F)F)cc(C(F)(F)F)c1)c1ncnn1-c1ccc(O/C=C\C(F)(F)F)cn1 (stereo not drawn) [Compound P10, 3,5-bis(trifluoromethyl)-N-[1-[2-[5-[(Z)-3,3,3-trifluoroprop-1-enoxy]-2-pyridyl]-1,2,4-triazol-3-yl]ethyl]benzamide]
≥ 80%: percent control (mortality or growth inhibition) at 200 ppm [2] | mortality at 500 ppm [8] | percent control (mortality, anti-feedant effect or growth inhibition) at 200 ppm [6]

CC(NC(=O)c1cc(OCC(F)F)cc(C(F)(F)F)c1)c1ncnn1-c1ncc(OC(F)F)cn1 (stereo not drawn) [Compound P12, 3-(2,2-difluoroethoxy)-N-[1-[2-[5-(difluoromethoxy)pyrimidin-2-yl]-1,2,4-triazol-3-yl]ethyl]-5-(trifluoromethyl) benzamide]
≥ 80%: percent control (mortality or growth inhibition) at 200 ppm [2] | percent control (mortality, anti-feeding or growth inhibition) at 200 ppm [3] | mortality at 12 ppm [4] | percent control (mortality, anti-feedant effect or growth inhibition) at 200 ppm [6]

CC(NC(=O)c1cc(C(F)(F)F)cc(C(F)(F)F)c1)c1ncnn1-c1ccc(OCC(F)F)cn1 (stereo not drawn) [Compound P9, N-[1-[2-[5-(2,2-difluoroethoxy)-2-pyridyl]-1,2,4-triazol-3-yl]ethyl]-3,5-bis(trifluoromethyl) benzamide]
≥ 80%: percent control (mortality or growth inhibition) at 200 ppm [2] | percent control (mortality, anti-feeding or growth inhibition) at 200 ppm [3] | percent control (mortality or growth inhibition) at 200 ppm [5] | percent control (mortality, anti-feedant effect or growth inhibition) at 200 ppm [6]

C[C@H](NC(=O)c1cc(C(F)(F)F)cc(C(F)(F)F)c1)c1ncnn1-c1ncc(OC(F)(F)F)cn1 [Compound P7, N-[(1S)-1-[2-[5-(trifluoromethoxy)pyrimidin-2-yl]-1,2,4-triazol-3-yl]ethyl]-3,5-bis(trifluoromethyl) benzamide]
≥ 80%: percent control (mortality or growth inhibition) at 200 ppm [2] | percent control (mortality, anti-feeding or growth inhibition) at 200 ppm [3] | percent control (mortality or growth inhibition) at 200 ppm [5]
